# Assay results: PMC5303205, “Comparative studies on the multi-component pharmacokinetics of Aristolochiae Fructus and honey-fried Aristolochiae Fructus extracts after oral administration in rats” (BMC Complementary and Alternative Medicine, 2017)
# Read-outs that look alike come from different tables or passages of the source.
# What was measured:
# [1] = Multi-component pharmacokinetics of AAs in rats after oral administration of AF and HAF extracts (HPLC-MS/MS of plasma); set-up: species or system Sprague–Dawley (SD) rats; settings: Sprague-Dawley, rat, in vivo
# Procedure: An aliquot (100 μl) of rat plasma was spiked with 10.0 μL IS, and vortexed with 300 μL acetic ether for 10 s before the supernatant was transferred into centrifuge tube. The extraction was repeated with 200 μL acetic ether. The combined organic layer was evaporated to dryness under a gentle stream of nitrogen at RT. The residue was resolved in 100 μL methanol and centrifuged at 15,800 × g for 10 min. The supernatant was used for HPLC-MS/MS analysis.
# Chromatographic separation was performed by an Acquity C18 column (4.6 × 100 mm,3.5 μm) (Agilent Technologies, USA). The mobile phase was composed of water (containing 10 mM ammonium formate and formic acid, pH 3.0) (solvent A) and ACN (solvent B). The gradient profile of B was: 0–10 min, 35–38%; 10–11 min, 38– 60%; 11–17 min, 60–35%B; 17–18 min, 35%. The flow rate was kept at 0.5 mL/min. The column oven was set at 30 °C and the injection volume was 10 μL.
# The mass spectrometer was operated in the positive ion electrospray mode with multiple reaction monitoring (MRM). The optimal MS parameters were set at the following parameters: a desolvation gas temperature of 450 °C, desolvation gas flow of 10 L/min, a nebulizer gas of 40 psi and a capillary voltage of 4000 V. The mass spectrometry conditions of AA I, AA II, AA C, AA D, 7-OH AA I and IS are summarized in Additional file 1: Table S1.
# The rats were randomly divided into 6 groups (low, middle and high doses of AF and HAF; n = 6). After a week of acclimation, the animals were fasted for 12 h with free access to water. Then, AF and HAF extracts were administered to the rats. The extracts were suspended in 0.5% CMC–Na solution, and the oral doses (according to AA I in the extracts) were 3.0 mg/kg, 8.0 mg/kg and 15.0 mg/kg, respectively.
# Blood samples were collected from the ocular vein using dried heparinized tubes at 0, 0.083, 0.17, 0.33, 0.50, 0.67, 0.83, 1, 2, 4, 6, 8, 10, 12 and 24 h from the start. The animals received fluid replacement (sterile isotonic saline) after every two samplings since the fifth collecting. The samples were then immediately centrifuged at 3100 × g for 10 min. The plasma obtained was frozen and stored at –20 °C until analysis.
# All statistical analyses were performed using the SPSS 11.0 software (Chicago, USA). P values <0.05 were considered statistically significant. Pharmacokinetic analysis was performed using the proprietary DAS 3.0 software (Mathematical Pharmacology Professional Committee of China, Shanghai, China).
# After the oral administration of AF and HAF extracts, rat plasma samples were prepared and analyzed as described above. Five main AAs can be detected in rat blood with the proposed HPLC-MS/MS method. The mean pharmacokinetic parameters of five AAs in AF and HAF are summarized in Tables 4, 5 and Additional files 5, 6, 7: Tables S4-S6. The maximum concentration (C max) was the experimentally-observed value. The other pharmacokinetic parameters of the five analytes were fitted by DAS 3.0 software.
# [2] = Stability of AAs in rat plasma (QC samples, HPLC-MS/MS); format: in vitro ADME; settings: n = 5; for Short-term stability (RSD/%): fresh rat plasma at room temperature for 24 h before sample preparation; for Post-preparation stability (RSD/%): prepared rat plasma samples at room temperature for 24 h; for Long-term stability (RSD/%): rat plasma stored at –20 °C for 14 days; for Freeze-thaw stability (RSD/%): rat plasma, three freeze-thaw cycles (–20 °C 24 h, thawed at room temperature)
# Procedure: The QC samples were assayed under several different conditions to evaluate the stability of AAs in rat plasma. The freeze-thaw stability of the analyte was determined over three freeze-thaw cycles. In each freeze-thaw cycle, the samples were frozen and stored at –20 °C for 24 h, then thawed at room temperature. To evaluate the long-term stability of AAs, the plasma samples were stored at –20 °C for 14 days. For the short-term stability, fresh plasma samples were kept at room temperature for 24 h before the sample preparation. After keeping the samples at room temperature for 24 h, post-preparation stability was tested. Stability was evaluated by comparing the mean concentration of the stored samples with the mean concentration of those prepared freshly. The stability data were acceptable when the bias was within ±15% of the actual value.
# [3] = 3 mg/kg, AF extract, low dose (3.0 mg/kg as AA I), analyte dose mg/kg: AA I 3.0, AA II 0.21, AA C 1.42, AA D 1.60, 7-OH AA I 2.33, n = 6
# [4] = 3 mg/kg, HAF extract, low dose (3.0 mg/kg as AA I), analyte dose mg/kg: AA I 3.0, AA II 0.26, AA C 1.53, AA D 1.51, 7-OH AA I 2.48, n = 6
# [5] = 8 mg/kg, AF extract, mid dose (8.0 mg/kg as AA I), analyte dose mg/kg: AA I 8.0, AA II 0.56, AA C 3.78, AA D 4.26, 7-OH AA I 6.22, n = 6
# [6] = 8 mg/kg, HAF extract, mid dose (8.0 mg/kg as AA I), analyte dose mg/kg: AA I 8.0, AA II 0.69, AA C 4.09, AA D 4.03, 7-OH AA I 6.62, n = 6
# [7] = 15 mg/kg, AF extract, high dose (15.0 mg/kg as AA I), analyte dose mg/kg: AA I 15.0, AA II 1.05, AA C 7.09, AA D 8.00, 7-OH AA I 11.66, n = 6
# [8] = 15 mg/kg, HAF extract, high dose (15.0 mg/kg as AA I), analyte dose mg/kg: AA I 15.0, AA II 1.29, AA C 7.66, AA D 7.56, 7-OH AA I 12.41, n = 6
# [9] = high QC conc ng/mL: AA I 1830, AA II 3200, AA C 2980, AA D 3680, 7-OH AA I 3280
# [10] = low QC conc ng/mL: AA I 1.83, AA II 8.00, AA C 186.3, AA D 36.8, 7-OH AA I 82.0
# [11] = middle QC conc ng/mL: AA I 457.5, AA II 400, AA C 372.5, AA D 460, 7-OH AA I 410
smiles,measurement,setting,value
O=C(O)c1cc2c(c3c1c([N+](=O)[O-])cc1ccccc13)OCO2 [AA II],AUC(0-inf),[1]; [3],3960 ± 1000 ng·h/mL
same,Cmax,[1]; [3],590 ± 191 ng/mL
same,Tmax,[1]; [3],1.03 ± 0.18 h
same,CL/F,"[1]; 3 mg/kg, AF extract, low dose (3.0 mg/kg as AA I), analyte dose mg/kg: AA I 3.0, AA II 0.21, AA C 1.42, AA D 1.60, 7-OH AA I 2.33, n = 6, read-out: CLz/F (converted)",1.17 mL/min/kg
same,Vd/F,"[1]; 3 mg/kg, AF extract, low dose (3.0 mg/kg as AA I), analyte dose mg/kg: AA I 3.0, AA II 0.21, AA C 1.42, AA D 1.60, 7-OH AA I 2.33, n = 6, read-out: Vz/F",0.49 ± 0.06 L/kg
same,half-life,"[1]; 3 mg/kg, AF extract, low dose (3.0 mg/kg as AA I), analyte dose mg/kg: AA I 3.0, AA II 0.21, AA C 1.42, AA D 1.60, 7-OH AA I 2.33, n = 6, read-out: t 1/2z (converted)",4.98 ± 0.55 h
same,AUC(0-inf),[1]; [4],2720 ± 795 ng·h/mL
same,Cmax,[1]; [4],293 ± 55.2 ng/mL
same,Tmax,[1]; [4],0.81 ± 0.14 h
same,CL/F,"[1]; 3 mg/kg, HAF extract, low dose (3.0 mg/kg as AA I), analyte dose mg/kg: AA I 3.0, AA II 0.26, AA C 1.53, AA D 1.51, 7-OH AA I 2.48, n = 6, read-out: CLz/F (converted)",1.33 mL/min/kg
same,Vd/F,"[1]; 3 mg/kg, HAF extract, low dose (3.0 mg/kg as AA I), analyte dose mg/kg: AA I 3.0, AA II 0.26, AA C 1.53, AA D 1.51, 7-OH AA I 2.48, n = 6, read-out: Vz/F",0.55 ± 0.07 L/kg
same,half-life,"[1]; 3 mg/kg, HAF extract, low dose (3.0 mg/kg as AA I), analyte dose mg/kg: AA I 3.0, AA II 0.26, AA C 1.53, AA D 1.51, 7-OH AA I 2.48, n = 6, read-out: t 1/2z (converted)",4.94 ± 0.61 h
same,AUC(0-inf),[1]; [5],7820 ± 1980 ng·h/mL
same,Cmax,[1]; [5],1140 ± 193 ng/mL
same,Tmax,[1]; [5],1.33 ± 0.21 h
same,CL/F,"[1]; 8 mg/kg, AF extract, mid dose (8.0 mg/kg as AA I), analyte dose mg/kg: AA I 8.0, AA II 0.56, AA C 3.78, AA D 4.26, 7-OH AA I 6.22, n = 6, read-out: CLz/F (converted)",1.17 mL/min/kg
same,Vd/F,"[1]; 8 mg/kg, AF extract, mid dose (8.0 mg/kg as AA I), analyte dose mg/kg: AA I 8.0, AA II 0.56, AA C 3.78, AA D 4.26, 7-OH AA I 6.22, n = 6, read-out: Vz/F",0.48 ± 0.05 L/kg
same,half-life,"[1]; 8 mg/kg, AF extract, mid dose (8.0 mg/kg as AA I), analyte dose mg/kg: AA I 8.0, AA II 0.56, AA C 3.78, AA D 4.26, 7-OH AA I 6.22, n = 6, read-out: t 1/2z (converted)",5.06 ± 0.49 h
same,AUC(0-inf),[1]; [6],3870 ± 1200 ng·h/mL
same,Cmax,[1]; [6],412 ± 104 ng/mL
same,Tmax,[1]; [6],0.81 ± 0.16 h
same,CL/F,"[1]; 8 mg/kg, HAF extract, mid dose (8.0 mg/kg as AA I), analyte dose mg/kg: AA I 8.0, AA II 0.69, AA C 4.09, AA D 4.03, 7-OH AA I 6.62, n = 6, read-out: CLz/F (converted)",1.17 mL/min/kg
same,Vd/F,"[1]; 8 mg/kg, HAF extract, mid dose (8.0 mg/kg as AA I), analyte dose mg/kg: AA I 8.0, AA II 0.69, AA C 4.09, AA D 4.03, 7-OH AA I 6.62, n = 6, read-out: Vz/F",0.49 ± 0.06 L/kg
same,half-life,"[1]; 8 mg/kg, HAF extract, mid dose (8.0 mg/kg as AA I), analyte dose mg/kg: AA I 8.0, AA II 0.69, AA C 4.09, AA D 4.03, 7-OH AA I 6.62, n = 6, read-out: t 1/2z (converted)",4.95 ± 0.53 h
same,AUC(0-inf),[1]; [7],12700 ± 2960 ng·h/mL
same,Cmax,[1]; [7],1520 ± 200 ng/mL
same,Tmax,[1]; [7],1.83 ± 0.29 h
same,CL/F,"[1]; 15 mg/kg, AF extract, high dose (15.0 mg/kg as AA I), analyte dose mg/kg: AA I 15.0, AA II 1.05, AA C 7.09, AA D 8.00, 7-OH AA I 11.66, n = 6, read-out: CLz/F (converted)",1.83 mL/min/kg
same,Vd/F,"[1]; 15 mg/kg, AF extract, high dose (15.0 mg/kg as AA I), analyte dose mg/kg: AA I 15.0, AA II 1.05, AA C 7.09, AA D 8.00, 7-OH AA I 11.66, n = 6, read-out: Vz/F",0.82 ± 0.09 L/kg
same,half-life,"[1]; 15 mg/kg, AF extract, high dose (15.0 mg/kg as AA I), analyte dose mg/kg: AA I 15.0, AA II 1.05, AA C 7.09, AA D 8.00, 7-OH AA I 11.66, n = 6, read-out: t 1/2z (converted)",5.16 ± 0.52 h
same,AUC(0-inf),[1]; [8],5630 ± 1690 ng·h/mL
same,Cmax,[1]; [8],528 ± 62.4 ng/mL
same,Tmax,[1]; [8],0.93 ± 0.19 h
same,CL/F,"[1]; 15 mg/kg, HAF extract, high dose (15.0 mg/kg as AA I), analyte dose mg/kg: AA I 15.0, AA II 1.29, AA C 7.66, AA D 7.56, 7-OH AA I 12.41, n = 6, read-out: CLz/F (converted)",1.5 mL/min/kg
same,Vd/F,"[1]; 15 mg/kg, HAF extract, high dose (15.0 mg/kg as AA I), analyte dose mg/kg: AA I 15.0, AA II 1.29, AA C 7.66, AA D 7.56, 7-OH AA I 12.41, n = 6, read-out: Vz/F",0.72 ± 0.08 L/kg
same,half-life,"[1]; 15 mg/kg, HAF extract, high dose (15.0 mg/kg as AA I), analyte dose mg/kg: AA I 15.0, AA II 1.29, AA C 7.66, AA D 7.56, 7-OH AA I 12.41, n = 6, read-out: t 1/2z (converted)",5.39 ± 0.48 h
same,Short-term stability (RSD/%),[2]; [9],9.3%
same,Short-term stability (RSD/%),[2]; [10],5.0%
same,Short-term stability (RSD/%),[2]; [11],5.5%
same,Post-preparation stability (RSD/%),[2]; [9],6.5%
same,Post-preparation stability (RSD/%),[2]; [10],4.4%
same,Post-preparation stability (RSD/%),[2]; [11],3.6%
same,Long-term stability (RSD/%),[2]; [9],7.3%
same,Long-term stability (RSD/%),[2]; [10],1.2%
same,Long-term stability (RSD/%),[2]; [11],8.2%
same,Freeze-thaw stability (RSD/%),[2]; [9],14.3%
same,Freeze-thaw stability (RSD/%),[2]; [10],1.3%
same,Freeze-thaw stability (RSD/%),[2]; [11],10.2%
